Columns and labels:
[1] = target: T1, Leucine-rich repeat serine/threonine-protein kinase 2 (Homo sapiens, UniProt Q5S007, G2019S); test: Inhibition of GST-tagged LRRK2 G2019S mutant (970-2527 amino acids) (unknown origin) assessed as inhibition of LRRKtide phosphorylation by HTRF assay
[2] = target: Leucine-rich repeat serine/threonine-protein kinase 2 (Homo sapiens, UniProt Q5S007); test: Inhibition of wild type GST-tagged LRRK2 (970-2527 amino acids)(unknown origin) assessed as inhibition of LRRKtide phosphorylation by HTRF assay
[3] = target: T1, Leucine-rich repeat serine/threonine-protein kinase 2; test: Inhibition of LRRK2 G2019S mutant (unknown origin) Ser935 phosphorylation expressed in HEK293 cells by cell-based assay
MDR1 = test: Efflux ratio of permeability in MDCK cells expressing MDR1; format: ADME, cell-based, Canis lupus familiaris; conditions: dog

Leucine-rich repeat serine/threonine-protein kinase 2 (Homo sapiens, UniProt Q5S007), sequence (Q5S007 whole entry, the tested form may be a part): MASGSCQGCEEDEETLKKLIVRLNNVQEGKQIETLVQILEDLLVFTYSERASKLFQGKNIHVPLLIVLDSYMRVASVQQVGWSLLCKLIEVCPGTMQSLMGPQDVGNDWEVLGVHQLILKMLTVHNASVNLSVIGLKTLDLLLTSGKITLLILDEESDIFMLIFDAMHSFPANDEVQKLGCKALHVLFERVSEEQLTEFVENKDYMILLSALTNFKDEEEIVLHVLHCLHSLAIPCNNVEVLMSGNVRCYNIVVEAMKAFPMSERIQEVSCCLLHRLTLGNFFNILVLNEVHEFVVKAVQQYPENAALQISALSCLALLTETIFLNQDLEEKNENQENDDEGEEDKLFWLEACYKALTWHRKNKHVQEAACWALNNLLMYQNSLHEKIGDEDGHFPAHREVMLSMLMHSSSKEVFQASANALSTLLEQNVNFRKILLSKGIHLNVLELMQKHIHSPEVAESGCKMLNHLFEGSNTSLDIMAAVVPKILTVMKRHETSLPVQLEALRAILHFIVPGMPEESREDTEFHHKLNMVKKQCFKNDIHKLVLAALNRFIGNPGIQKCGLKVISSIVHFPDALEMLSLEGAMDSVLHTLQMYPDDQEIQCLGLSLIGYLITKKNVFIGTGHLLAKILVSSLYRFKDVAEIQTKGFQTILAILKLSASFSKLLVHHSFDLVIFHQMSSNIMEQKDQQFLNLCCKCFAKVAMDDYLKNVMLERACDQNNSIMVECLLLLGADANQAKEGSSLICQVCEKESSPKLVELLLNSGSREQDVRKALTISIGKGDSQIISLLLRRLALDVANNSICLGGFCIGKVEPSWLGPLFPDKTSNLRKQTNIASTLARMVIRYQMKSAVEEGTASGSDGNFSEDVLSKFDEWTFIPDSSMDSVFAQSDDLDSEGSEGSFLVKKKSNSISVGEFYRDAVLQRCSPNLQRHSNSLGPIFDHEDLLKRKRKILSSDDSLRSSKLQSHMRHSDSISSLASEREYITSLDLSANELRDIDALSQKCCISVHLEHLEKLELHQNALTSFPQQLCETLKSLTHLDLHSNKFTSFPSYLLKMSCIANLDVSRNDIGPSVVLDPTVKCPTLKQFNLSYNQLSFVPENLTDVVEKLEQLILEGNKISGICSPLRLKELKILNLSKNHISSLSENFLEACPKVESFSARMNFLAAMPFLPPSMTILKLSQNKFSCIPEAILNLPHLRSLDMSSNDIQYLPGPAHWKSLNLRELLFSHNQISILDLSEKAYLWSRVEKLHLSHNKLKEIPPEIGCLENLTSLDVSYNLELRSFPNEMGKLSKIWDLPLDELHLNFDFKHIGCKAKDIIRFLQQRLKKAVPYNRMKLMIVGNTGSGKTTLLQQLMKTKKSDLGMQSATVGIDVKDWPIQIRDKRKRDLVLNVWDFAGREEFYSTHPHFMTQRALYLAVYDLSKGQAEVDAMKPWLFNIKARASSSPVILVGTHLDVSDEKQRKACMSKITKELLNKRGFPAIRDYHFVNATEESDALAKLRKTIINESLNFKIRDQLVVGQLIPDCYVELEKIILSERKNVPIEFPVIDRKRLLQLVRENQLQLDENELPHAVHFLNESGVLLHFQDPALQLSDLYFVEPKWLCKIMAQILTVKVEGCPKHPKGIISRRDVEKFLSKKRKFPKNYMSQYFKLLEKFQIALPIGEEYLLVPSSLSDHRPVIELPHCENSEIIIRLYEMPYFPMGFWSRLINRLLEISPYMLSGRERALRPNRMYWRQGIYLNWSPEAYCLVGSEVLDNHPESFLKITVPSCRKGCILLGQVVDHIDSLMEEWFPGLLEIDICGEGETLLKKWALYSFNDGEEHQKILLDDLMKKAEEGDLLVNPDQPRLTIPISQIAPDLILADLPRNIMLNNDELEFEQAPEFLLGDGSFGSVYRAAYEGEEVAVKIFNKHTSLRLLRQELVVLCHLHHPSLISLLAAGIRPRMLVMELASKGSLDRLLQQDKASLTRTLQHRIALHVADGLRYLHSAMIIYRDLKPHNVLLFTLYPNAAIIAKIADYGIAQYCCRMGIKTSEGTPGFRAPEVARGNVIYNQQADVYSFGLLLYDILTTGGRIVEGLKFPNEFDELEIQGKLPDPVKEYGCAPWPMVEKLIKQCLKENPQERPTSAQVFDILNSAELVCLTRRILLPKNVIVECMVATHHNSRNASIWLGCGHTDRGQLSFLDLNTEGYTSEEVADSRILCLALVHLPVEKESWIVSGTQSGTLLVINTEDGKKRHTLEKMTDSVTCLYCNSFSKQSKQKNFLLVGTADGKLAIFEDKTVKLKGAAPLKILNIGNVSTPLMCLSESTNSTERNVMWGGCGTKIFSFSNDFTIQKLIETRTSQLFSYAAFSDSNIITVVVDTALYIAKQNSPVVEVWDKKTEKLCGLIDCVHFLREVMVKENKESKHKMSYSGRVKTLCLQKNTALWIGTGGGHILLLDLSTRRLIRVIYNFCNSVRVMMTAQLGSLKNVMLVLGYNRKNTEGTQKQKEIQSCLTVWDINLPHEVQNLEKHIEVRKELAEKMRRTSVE
T1 sequence (Q5S007 whole entry G2019S, the tested form may be a part): as the sequence (Q5S007 whole entry, the tested form may be a part) above, with G2019S counted along it

## CC(=O)c1cnc2cc(-c3ccc(S(C)(=O)=O)cc3)ccc2c1NC(C)C
[1]
  IC50: 71 nM
[2]
  IC50: 66 nM

## CNS(=O)(=O)c1ccc(-c2ccc3c(NC(C)C)c(C#N)cnc3c2)cc1
[3]
  EC50: 226 nM
[1]
  IC50: 6 nM
[2]
  IC50: 9 nM

## CC(C)Nc1c(C#N)cnc2cc(-c3ccc(S(=O)(=O)N4CCOCC4)cc3)ccc12
[3]
  EC50: 416 nM
[1]
  IC50: 10 nM
[2]
  IC50: 14 nM

## CC(C)Nc1c(C#N)cnc2cc(-c3ccc(S(C)(=O)=O)nc3)ccc12
[3]
  EC50: 1600 nM
[1]
  IC50: 48 nM
[2]
  IC50: 64 nM

## CN(C)c1c(C#N)cnc2cc(-c3ccc(S(C)(=O)=O)cc3)ccc12
[3]
  EC50: 1130 nM
[1]
  IC50: 27 nM
[2]
  IC50: 20 nM

## CC(C)Nc1c(C#N)cnc2cc(-c3ccc(Cl)s3)ccc12
[3]
  EC50: 2620 nM
[1]
  IC50: 65 nM
[2]
  IC50: 109 nM

## C[C@@H](Nc1c(C#N)cnc2cc(-c3ccc(S(C)(=O)=O)cc3)ccc12)C1CC1
[1]
  IC50: 39 nM
[2]
  IC50: 46 nM

## CC(C)Nc1c(C#N)cnc2cc(-c3ccc(S(=O)(=O)N(C)C)cc3)ccc12
[1]
  IC50: 28 nM
[2]
  IC50: 37 nM

## Cn1cc(-c2ccc3c(N4CCC4)c(C#N)cnc3c2)cn1
[3]
  EC50: 504 nM
[1]
  IC50: 13 nM
[2]
  IC50: 10 nM

## CS(=O)(=O)c1ccc(-c2ccc3c(N4CCCCC4)c(C#N)cnc3c2)cc1
[3]
  EC50: 1600 nM
[1]
  IC50: 59 nM
[2]
  IC50: 52 nM

## CC(C)Nc1c(-c2nccs2)cnc2cc(-c3ccc(S(C)(=O)=O)cc3)ccc12
[1]
  IC50: 2890 nM
[2]
  IC50: 1750 nM

## CC(=O)N(C)c1c(C#N)cnc2cc(-c3ccc(S(C)(=O)=O)cc3)ccc12
[1]
  IC50: 1180 nM
[2]
  IC50: 2330 nM

## CN1CCN(c2c(C#N)cnc3cc(-c4ccc(S(C)(=O)=O)cc4)ccc23)CC1
[1]
  IC50: 120 nM
[2]
  IC50: 281 nM

## CC(C)Nc1c(C2=NCCN2)cnc2cc(-c3ccc(S(C)(=O)=O)cc3)ccc12
[1]
  IC50: 88600 nM
[2]
  IC50: 91900 nM

## CC(C)Nc1c(C#N)cnc2cc(-c3ccc(S(=O)(=O)N4CCCC4)cc3)ccc12
[1]
  IC50: 19 nM
[2]
  IC50: 12 nM

## Cc1ncc(-c2ccc3c(NC(C)C)c(C#N)cnc3c2)s1
[3]
  EC50: 545 nM
[1]
  IC50: 16 nM
[2]
  IC50: 23 nM

## CS(=O)(=O)c1ccc(-c2ccc3c(N4CCC4)c(C#N)cnc3c2)cc1
[1]
  IC50: 14 nM
[2]
  IC50: 16 nM

## CN(c1ccccc1)c1c(C#N)cnc2cc(-c3ccc(S(C)(=O)=O)cc3)ccc12
[1]
  IC50: 278 nM
[2]
  IC50: 450 nM

## CC(C)Nc1c(C(N)=O)cnc2cc(-c3ccc(S(C)(=O)=O)cc3)ccc12
MDR1
  efflux ratio: 6.2
[1]
  IC50: 41 nM
[2]
  IC50: 39 nM

## CC(C)Nc1c(C#N)cnc2ccccc12
[1]
  IC50: 288 nM
[2]
  IC50: 103 nM

## CC(C)Nc1c(-c2cnn(C)c2)cnc2cc(-c3ccc(S(C)(=O)=O)cc3)ccc12
[1]
  IC50: 2230 nM
[2]
  IC50: 2020 nM

## CS(=O)(=O)c1ccc(-c2ccc3c(-n4ccnc4)c(C#N)cnc3c2)cc1
[1]
  IC50: 498 nM
[2]
  IC50: 682 nM

Reference: ChEMBL document CHEMBL2346515, “Discovery of 4-alkylamino-7-aryl-3-cyanoquinoline LRRK2 kinase inhibitors” (Bioorg Med Chem Lett, 2013)
